Reference: patent publication US4317912A, “Tetracyclic indole derivatives” (Farmitalia Carlo Erba S.p.A., priority 1979, dated 1982)

What was measured:
[1] = system: spontaneously hypertensive male rats, strain MHS; test: Anti-hypertensive activity in spontaneously hypertensive rats (MHS), blood pressure and heart rate measured at the tail; format: in vivo, rat (spontaneously hypertensive; settings: MHS rats; for Change in BP, 1st day, 1 hr after dose / Change in HR, 1st day, 1 hr after dose / Change in BP, 1st day, 5 hrs after dose / Change in HR, 1st day, 5 hrs after dose / Change in BP, 4th day, 1 hr after dose / Change in HR, 4th day, 1 hr after dose / Change in BP, 4th day, 5 hrs after dose / Change in HR, 4th day, 5 hrs after dose: mean of 4 animals; for Activity compared with Hydralazine and α-methyl-DOPA / Effect on blood pressure: 1st and 4th day; for Activity compared with Hydralazine and α-methyl-DOPA: vs Hydralazine (3 mg/kg per os) and α-methyl-DOPA; for Tolerance after repeated administration: four days, 355/1165 2 mg/kg, 355/1226 3 mg/kg, 355/1225 and 355/1229 5 mg/kg per os
Experimental: Four spontaneously hypertensive male rats, strains MHS, weighing 250-300 g for each group were used.
The animals were treated for four consecutive days. Drugs were administered by gastric gavage, suspended in 5% arabic gum (0.2 ml/100 g body weight). Blood pressure (BP) and heart rate (HR) were measured at the tail by BP Recorder W+W. Blood pressure and heart rate were measured on the 1st and 4th day of treatment 1 hour before and 1 and 5 hours after drug administration.
*Data of LD50 from the literature. In Tables 1 and 2 are reported
the results of the study of the activity of compounds 355/1165 and
355/1166 upon the BP and HR (measured indirectly by means of a tail cuff)
of spontaneous hypertensive rats, MHS strain (4 rats each group). The
compounds were given orally, once a day for 4 consecutive days.

[2] = system: spontaneously hypertensive rats (Okamoto strain); test: Anti-hypertensive activity in conscious spontaneously hypertensive rats (Okamoto), carotid artery catheter; format: in vivo, rat (spontaneously hypertensive; settings: for Change in blood pressure after treatment, 30' / Change in heart rate after treatment, 30' / Change in blood pressure after treatment, 60' / Change in heart rate after treatment, 60' / Change in blood pressure after treatment, 120' / Change in heart rate after treatment, 120' / Change in blood pressure after treatment, 240' / Change in heart rate after treatment, 240' / Change in blood pressure after treatment, 360' / Change in heart rate after treatment, 360': mean of 6 animals
Experimental: Blood pressure recordings were made in conscious hypertensive unrestrained rats weighing approximately 300 g, via a catheter cronically inserted into the left common carotid artery. Implantation of arterial cannula was made under sodium pentobarbital anesthesia (50 mg/kg i.p.). A 1 cm long incision was made through the previously shaved ventral surface of the neck and the tissues overlying the trachea parted by blunt dissection to reveal the carotid artery. The polyethylene catheter used was made with PE 50 tubing, previously filled with saline containing 250 I.U./ml heparin. The tip of the cannula was pushed at least 2 cm inside the vessel toward the heart. The cannula was then firmly tied and passed beneath the skin to emerge from a small incision in the back of the neck. During the postoperative period and before the start of each recording session, the cannula was flushed through daily with saline containing heparin (250 U.I./ml). The experiments were performed two days after surgery. Drugs were administered by gastric gavage.

[3] = Acute (orientative) oral toxicity in mice; settings: mouse, in vivo
Excerpt: The male mice for each group were orally treated with drugs at different dose levels for the determination of orientative toxicity.

Row | Structure (SMILES) | Change in BP, 1st day, 1 hr after dose ([1]; 5 mg/kg os, 1st day) | Change in HR, 1st day, 1 hr after dose ([1]; 5 mg/kg os, 1st day) | Change in BP, 1st day, 5 hrs after dose ([1]; 5 mg/kg os, 1st day) | Change in HR, 1st day, 5 hrs after dose ([1]; 5 mg/kg os, 1st day) | Change in BP, 4th day, 1 hr after dose ([1]; 5 mg/kg os) | Change in HR, 4th day, 1 hr after dose ([1]; 5 mg/kg os) | Change in BP, 4th day, 5 hrs after dose ([1]; 5 mg/kg os) | Change in HR, 4th day, 5 hrs after dose ([1]; 5 mg/kg os) | LD50 at 168 h [3] | Change in BP, 1st day, 1 hr after dose ([1]; 1 mg/kg os, 1st day) | Change in HR, 1st day, 1 hr after dose ([1]; 1 mg/kg os, 1st day) | Change in BP, 1st day, 5 hrs after dose ([1]; 1 mg/kg os, 1st day) | Change in HR, 1st day, 5 hrs after dose ([1]; 1 mg/kg os, 1st day) | Change in BP, 4th day, 1 hr after dose ([1]; 1 mg/kg os) | Change in HR, 4th day, 1 hr after dose ([1]; 1 mg/kg os) | Change in BP, 4th day, 5 hrs after dose ([1]; 1 mg/kg os) | Change in HR, 4th day, 5 hrs after dose ([1]; 1 mg/kg os) | Activity compared with Hydralazine and α-methyl-DOPA ([1]; 5 mg/kg per os) | Effect on blood pressure ([1]; 1 and 5 mg/kg orally) | Tolerance after repeated administration [1] | other results
1 | CCOC(=O)C(C#N)CC1CN(C)C2Cc3c[nH]c4cccc(c34)CC12 (stereo not drawn) [355/1166, 2-Cyano-3-[trans-5(10→9)abeo-6-methyl-ergoline-8β]-propionic acid ethyl ester] | -8 mmHg | -25 b/min | -20 mmHg | -25 b/min | -22 mmHg | -35 b/min | -26 mmHg | -20 b/min | > 800 mg/kg | – | – | – | – | – | – | – | – | – | – | – | Effect on BP ([1]; 5 mg/kg per os): lowers BP at each recording session, but its effect is more pronounced after the 4th dose; Effectiveness compared with α-methyl-DOPA ([1]; 5 mg/kg per os): 20 times; Hypotensive effect compared with Hydralazine, after 4th administration ([1]; 1st and 5th hours after 4th administration, 5 mg/kg per os vs Hydralazine 3 mg/kg per os): greater hypotensive effect; Activity compared with Hydralazine, 1st day ([1]; 1st day, 5 mg/kg per os vs Hydralazine 3 mg/kg per os): less pronounced activity than Hydralazine; Change in blood pressure after treatment, 30' ([2]; 5 mg/kg os): 0 mmHg; Change in heart rate after treatment, 30' ([2]; 5 mg/kg os): -20 b/min; Change in blood pressure after treatment, 60' ([2]; 5 mg/kg os): -3 mmHg; Change in heart rate after treatment, 60' ([2]; 5 mg/kg os): -20 b/min; Change in blood pressure after treatment, 120' ([2]; 5 mg/kg os): -15 mmHg; Change in heart rate after treatment, 120' ([2]; 5 mg/kg os): -35 b/min; Change in blood pressure after treatment, 240' ([2]; 5 mg/kg os): -18 mmHg; Change in heart rate after treatment, 240' ([2]; 5 mg/kg os): -15 b/min; Change in blood pressure after treatment, 360' ([2]; 5 mg/kg os): -10 mmHg; Change in heart rate after treatment, 360' ([2]; 5 mg/kg os): -20 b/min; Effectiveness compared with the reference compound (hydralazine) ([2]; 5 mg/kg per os): less effective than the reference compound; Effect on heart rate ([2]; oral (Table 4)): slight bradycardia and never tachicardia
2 | NNc1nncc2ccccc12 [Hydralazine, reference compound] | – | – | – | – | – | – | – | – | – | 0 mmHg | +20 b/min | -10 mmHg | +25 b/min | +7 mmHg | +30 b/min | +2 mmHg | +15 b/min | – | – | – | Change in BP, 1st day, 1 hr after dose ([1]; 3 mg/kg os, 1st day): -43 mmHg; Change in HR, 1st day, 1 hr after dose ([1]; 3 mg/kg os, 1st day): +31 b/min; Change in BP, 1st day, 5 hrs after dose ([1]; 3 mg/kg os, 1st day): -29 mmHg; Change in HR, 1st day, 5 hrs after dose ([1]; 3 mg/kg os, 1st day): +34 b/min; Change in BP, 4th day, 1 hr after dose ([1]; 3 mg/kg os): -15 mmHg; Change in HR, 4th day, 1 hr after dose ([1]; 3 mg/kg os): +18 b/min; Change in BP, 4th day, 5 hrs after dose ([1]; 3 mg/kg os): +5 mmHg; Change in HR, 4th day, 5 hrs after dose ([1]; 3 mg/kg os): +13 b/min; Effect on heart rate ([1]; oral, all doses treated (Table 2)): no effect on heart rate; Change in blood pressure after treatment, 30' ([2]; 3 mg/kg os): -25 mmHg; Change in heart rate after treatment, 30' ([2]; 3 mg/kg os): +50 b/min; Change in blood pressure after treatment, 60' ([2]; 3 mg/kg os): -33 mmHg; Change in heart rate after treatment, 60' ([2]; 3 mg/kg os): +21 b/min; Change in blood pressure after treatment, 120' ([2]; 3 mg/kg os): -40 mmHg; Change in heart rate after treatment, 120' ([2]; 3 mg/kg os): +52 b/min; Change in blood pressure after treatment, 240' ([2]; 3 mg/kg os): -29 mmHg; Change in heart rate after treatment, 240' ([2]; 3 mg/kg os): +3 b/min; Change in blood pressure after treatment, 360' ([2]; 3 mg/kg os): -7 mmHg; Change in heart rate after treatment, 360' ([2]; 3 mg/kg os): +3 b/min
3 | CN1CC(CCC#N)C2Cc3cccc4[nH]cc(c34)CC21 (stereo not drawn) [355/1225, Trans-5(10→9)abeo-6-methyl-ergoline-8β-propionitrile] | -67 mmHg | -32 b/min | -42 mmHg | -4 b/min | -34 mmHg | -55 b/min | -21 mmHg | -59 b/min | 600 mg/kg | -28 mmHg | +5 b/min | -17 mmHg | -22 b/min | -34 mmHg | -40 b/min | -21 mmHg | -43 b/min | greater activity | reduces blood pressure in dose-dependent manner on both the 1st and 4th day of treatment | No tolerance occurs | Time of peak effect on blood pressure ([1]; 1 and 5 mg/kg orally): one hour after dosing
4 | CN1CC(CC(C#N)C(N)=O)C2=Cc3cccc4[nH]cc(c34)CC21 (stereo not drawn) [355/1229, 2-Cyano-3-[5(10→9)abeo-9,10-didehydro-6-methyl-ergoline-8β]-propionamide] | -26 mmHg | -40 b/min | -20 mmHg | -35 b/min | -36 mmHg | -50 b/min | -45 mmHg | -55 b/min | 600 mg/kg | -26 mmHg | +25 b/min | -19 mmHg | -2 b/min | -21 mmHg | -18 b/min | – | -53 b/min | greater activity | both dosages reduce BP in a similar way on the 1st day, when during the 4th day the decrease of BP is dose-dependent | No tolerance occurs | –
